What was measured:
[1] = biological target: T1, UCP4:ANT1 heterotetramer (1:1) (Homo sapiens; Bos taurus, UniProt O95847+P02722); assay type: biochemical; settings: 500 uM ATP; EYPC without added cardiolipin, 100 uM palmitic acid, valinomycin, pH 7.2, 25 C
T1 construct: gene SLC25A27; co-reconstituted 1:1 in liposomes from purified N-terminally His6-tagged monomers (bovine ANT1, human UCP4); heterotetramer
T1 sequence (O95847 1-323): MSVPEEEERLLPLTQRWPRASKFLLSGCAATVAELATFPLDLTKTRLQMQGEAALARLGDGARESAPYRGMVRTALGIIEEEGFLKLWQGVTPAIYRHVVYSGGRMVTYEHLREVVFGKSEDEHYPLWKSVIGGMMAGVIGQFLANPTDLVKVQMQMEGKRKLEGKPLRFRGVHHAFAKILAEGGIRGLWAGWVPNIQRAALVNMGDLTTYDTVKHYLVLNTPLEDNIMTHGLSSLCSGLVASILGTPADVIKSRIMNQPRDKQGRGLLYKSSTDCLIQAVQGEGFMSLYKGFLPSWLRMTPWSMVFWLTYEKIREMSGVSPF
T1 sequence (P02722 2-298): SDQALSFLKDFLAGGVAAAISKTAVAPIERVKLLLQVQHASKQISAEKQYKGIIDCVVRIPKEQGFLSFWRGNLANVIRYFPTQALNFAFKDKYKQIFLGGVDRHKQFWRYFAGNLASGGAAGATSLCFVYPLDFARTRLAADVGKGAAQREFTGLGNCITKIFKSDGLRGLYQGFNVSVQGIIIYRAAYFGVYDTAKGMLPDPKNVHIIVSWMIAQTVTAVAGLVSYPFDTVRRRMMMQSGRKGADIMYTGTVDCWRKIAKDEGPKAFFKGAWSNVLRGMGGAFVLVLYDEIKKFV

ANT1 [2] = biological target: T2, ANT1 (Bos taurus, UniProt P02722); set-up: gene SLC25A4; settings: 500 uM ATP; EYPC without added cardiolipin, 100 uM palmitic acid, valinomycin, pH 7.2, 25 C
T2 sequence (P02722 2-298): T1 sequence (P02722 2-298)

[3] = biological target: T3, UCP2:ANT1 heterotetramer (1:1) (Homo sapiens; Bos taurus, UniProt P02722+P55851); assay type: biochemical; settings: 500 uM ATP; EYPC without added cardiolipin, 100 uM palmitic acid, valinomycin, pH 7.2, 25 C
T3 construct: co-reconstituted 1:1 in liposomes from purified N-terminally His6-tagged monomers (bovine ANT1, human UCP2); heterotetramer
T3 sequence (P55851 1-309): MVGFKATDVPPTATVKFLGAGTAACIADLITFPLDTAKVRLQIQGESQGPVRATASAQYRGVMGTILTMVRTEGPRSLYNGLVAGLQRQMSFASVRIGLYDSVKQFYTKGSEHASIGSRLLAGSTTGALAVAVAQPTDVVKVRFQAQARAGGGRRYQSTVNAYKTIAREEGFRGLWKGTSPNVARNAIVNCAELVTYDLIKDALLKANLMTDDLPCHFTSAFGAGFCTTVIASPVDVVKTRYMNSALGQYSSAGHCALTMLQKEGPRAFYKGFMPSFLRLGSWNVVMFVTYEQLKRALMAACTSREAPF
T3 sequence (P02722 2-298): T1 sequence (P02722 2-298)

[4] = biological target: T1, UCP4:ANT1 heterotetramer (1:1); assay: SPQ fluorescence proton efflux in proteoliposomes; assay type: biochemical; settings: read-out: % inhibition at 5 uM
[5] = biological target: T3, UCP2:ANT1 heterotetramer (1:1); assay: biochemical; set-up: SPQ fluorescence quenching assay of proton transport by carriers reconstituted in EYPC liposomes, palmitic acid activated; settings: EYPC liposomes + 2.5% cardiolipin, 100 uM palmitic acid
Procedure: (§1) FIGURE 8 Proton transport and CATR-inhibited proton transport rates of reconstituted UCP2, UCP4, ANT1, co-reconstituted UCP4:ANT1 and UCP2:ANT1 (1:1 stoichiometric ratio) in liposomes made from EYPC containing 2.5% added CL, in the presence of 100 μM palmitic acid (PA). Each experiment included final concentrations of 1 μM total combined protein and 1 mM lipid. Dark bars represent the total proton transport rate in the absence of CATR, shaded Gray bars represent the proton transport rate in the presence of 5 μM CATR (for corresponding numerical values, see Supplementary Table S6). Each bar represents the average transport rate of at least 10 repeats (from at least two independent experiments), and the error bars show the standard deviations. Asterisks (*) indicate a statistically significant difference (p < 0.05) between the total proton efflux and CATR-inhibited efflux within each combination. Note that the proton transport data for UCP4, UCP2, and ANT1 are reproduced from Figure 5. For the 1:1 combination of UCP4 and ANT1 heterotetramers, to further confirm the cooperativity between ANT1 and UCP4 dimers, we examined proton transport in the presence of the known ANT inhibitor CATR. CATR is an irreversible substrate inhibitor of ANT that blocks its ADP-ATP exchange function ([Klingenberg et al., 1975]). We surmised that irreversible inhibition of the nucleotide exchange activity of ANT and prevention of its alternating transport function could also affect the cooperativity of proton transport activity of ANT1-UCP4 heterotetramers. To verify this hypothesis, we first examined the inhibitory effect of CATR on the proton transport activity of individually reconstituted UCP4 and ANT1. […] A similar inhibitory effect of CATR on the proton transport function of ANT has been reported in a previous study ([Kreiter et al., 2021]). […] Supplementary Material . Figure S1. Schematic of proton transport assay and data analysis. […]

UCP2 = biological target: T4, UCP2 (Homo sapiens, UniProt P55851); assay: biochemical; set-up: SPQ fluorescence quenching assay of proton transport by carriers reconstituted in EYPC liposomes, palmitic acid activated; settings: EYPC liposomes + 2.5% cardiolipin, 100 uM palmitic acid
T4 construct: full length, N-terminal His6 tag kept, pelB leader removed; E. coli membranes; homotetramer in liposomes
T4 sequence (P55851 1-309): T3 sequence (P55851 1-309)
Procedure: as §1

UCP4 = biological target: T5, UCP4 (Homo sapiens, UniProt O95847); assay: biochemical; set-up: SPQ fluorescence quenching assay of proton transport by carriers reconstituted in EYPC liposomes, palmitic acid activated; settings: EYPC liposomes + 2.5% cardiolipin, 100 uM palmitic acid
T5 construct: gene SLC25A27; full length, N-terminal His6 tag kept, pelB leader removed; E. coli membranes; homotetramer in liposomes
T5 sequence (O95847 1-323): T1 sequence (O95847 1-323)
Procedure: as §1

ANT1 [6] = biological target: T2, ANT1; assay: biochemical; set-up: gene SLC25A4; full length, N-terminal His6 tag kept, pelB leader removed; E. coli membranes; mainly monomer in liposomes; SPQ fluorescence quenching assay of proton transport by carriers reconstituted in EYPC liposomes, palmitic acid activated; settings: EYPC liposomes + 2.5% cardiolipin, 100 uM palmitic acid
Procedure: FIGURE 8 Proton transport and CATR-inhibited proton transport rates of reconstituted UCP2, UCP4, ANT1, co-reconstituted UCP4:ANT1 and UCP2:ANT1 (1:1 stoichiometric ratio) in liposomes made from EYPC containing 2.5% added CL, in the presence of 100 μM palmitic acid (PA). Each experiment included final concentrations of 1 μM total combined protein and 1 mM lipid. Dark bars represent the total proton transport rate in the absence of CATR, shaded Gray bars represent the proton transport rate in the presence of 5 μM CATR (for corresponding numerical values, see Supplementary Table S6). Each bar represents the average transport rate of at least 10 repeats (from at least two independent experiments), and the error bars show the standard deviations. Asterisks (*) indicate a statistically significant difference (p < 0.05) between the total proton efflux and CATR-inhibited efflux within each combination. Note that the proton transport data for UCP4, UCP2, and ANT1 are reproduced from Figure 5. For the 1:1 combination of UCP4 and ANT1 heterotetramers, to further confirm the cooperativity between ANT1 and UCP4 dimers, we examined proton transport in the presence of the known ANT inhibitor CATR. CATR is an irreversible substrate inhibitor of ANT that blocks its ADP-ATP exchange function ([Klingenberg et al., 1975]). […]

| Compound | % inhibition at 500 uM [1] | % inhibition at 500 uM (ANT1 [2]) | % inhibition at 500 uM [3] | inhibition at 5 µM [4] | inhibition at 5 µM [5] | inhibition at 5 µM (UCP2) | inhibition at 5 µM (UCP4) | inhibition at 5 µM (ANT1 [6]) |
| --- | --- | --- | --- | --- | --- | --- | --- | --- |
| Nc1ncnc2c1ncn2[C@@H]1O[C@H](COP(=O)(O)OP(=O)(O)OP(=O)(O)O)[C@@H](O)[C@H]1O [ATP] | ATP significantly inhibited combinations of UCP2 or UCP4 with ANT1 | proton transport was inhibited by ATP more effectively than by GTP | ATP significantly inhibited combinations of UCP2 or UCP4 with ANT1 |  |  |  |  |  |
| C=C1[C@@H]2CC[C@H]3[C@]4(C)C[C@H](O[C@@H]5O[C@H](CO)[C@@H](OS(=O)(=O)O)[C@H](OS(=O)(=O)O)[C@H]5OC(=O)CC(C)C)CC(C(=O)O)(C(=O)O)[C@H]4CC[C@]3(C2)[C@H]1O [CATR, carboxyatractyloside] |  |  |  | ~71% | 73.6% | 1.7% | 2.7% | 70.1% |
